# Patent US9428448B2, “Compounds and methods of treating obesity” (Yissum Research Development Company of the Hebrew …, priority 2008, dated 2016)
# pEC50: −log10 of the molar value.
# Key:
# PPAR-α = biological target: T1, PPAR-α (Homo sapiens, UniProt Q07869); settings: reported by Giuseppe et al. 2006; read-out: EC50 for stimulating transcriptional activity of PPAR-α; cited from earlier work
# T1 sequence (Q07869 1-468): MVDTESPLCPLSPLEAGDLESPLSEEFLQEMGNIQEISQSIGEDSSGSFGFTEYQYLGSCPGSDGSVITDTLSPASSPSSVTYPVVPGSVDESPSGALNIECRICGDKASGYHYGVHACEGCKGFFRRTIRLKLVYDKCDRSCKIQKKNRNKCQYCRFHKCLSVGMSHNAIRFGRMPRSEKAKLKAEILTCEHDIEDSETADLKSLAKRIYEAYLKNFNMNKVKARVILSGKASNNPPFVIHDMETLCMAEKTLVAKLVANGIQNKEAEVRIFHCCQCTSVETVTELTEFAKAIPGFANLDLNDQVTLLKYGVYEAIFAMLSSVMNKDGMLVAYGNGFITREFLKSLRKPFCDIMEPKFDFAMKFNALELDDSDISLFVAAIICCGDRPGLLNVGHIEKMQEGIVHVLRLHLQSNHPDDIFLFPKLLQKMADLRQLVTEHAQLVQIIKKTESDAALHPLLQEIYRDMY
# [1] = locomotor activity in an open field (activity index); assay type: in vivo, Sabra mice; settings: 1 mg/kg i.p.; for effect on activity (mean number of crossings per minute; comparison study): open field (FIG. 10, Example 3)
# Description: Activity of the mice was assessed in an open field (20×30 cm) divided into 12 squares of equal size. Two mice were observed simultaneously for 5 minutes. The activity test was performed on day 11 of the experiment. Locomotor activity was recorded by counting the number of crossings by the mice at one minute intervals. The results, depicted in FIG. 4, are presented as the mean number of crossings per minute.
# Activity of the mice was assessed in an open field (20×30 cm) divided into 12 squares of equal size, as detailed in Example 2. The results, depicted in FIG. 10, are presented as the mean number of crossings per minute.
# [2] = test system: 2-AG levels in the hypothalamus; experiment: 2-AG levels in the hypothalamus (TLC followed by GC-MS); assay type: in vivo, mice; settings: treated group vs. control, 1 mg/kg i.p., p<0.05 (FIG. 5)
# Description: (§1) Mice were decapitated and their brains rapidly removed, and the hypothalamus and hippocampus were dissected. 2-AG levels in the hypothalamus were evaluated using TLC followed by GC-MS analysis.
# ALT levels = ALT levels in mice; assay type: in vivo, Sabra mice; settings: 1 mg/kg i.p., mice sacrificed 71 days after treatment (FIG. 13, Example 3)
# Description: (§2) This study compared the effects of Compound X and Rimonabant. Female Sabra mice (32 g average weight) were divided randomly to 3 experimental groups: (a) control; (b) Compound X; and (3) Rimonabant, 10 mice in each group. Food consumption and weight were evaluated during the experiment. During the second week, mice were evaluated for cognitive function during 5 days using the eight arm maze. 15 min before evaluation mice were injected i.p. with either saline or 1 mg/kg Compound X or Rimonabant (days 8-12).
# Mice were sacrificed 71 days after treatment, and ALT levels were measured.
# [3] = cognitive function evaluated by an 8 arm maze; assay type: in vivo, Sabra mice; settings: for effect on cognitive function (8 arm maze; comparison study): 1 mg/kg, second week of treatment (FIG. 12, Example 3)
# Description: Mice were subjected to the treatment regimen outlined in Example 1, and during the second week of treatment their cognitive function was evaluated by an 8 arm maze on the second week of the experiment 15 minutes after injection. Two hours before the test, the mice were on a water deprivation schedule. At the end of each arm there was a drop of water as a reward. Each mouse was evaluated for its performance in the maze. The mice were observed until they made entries to all eight arms or until they completed 24 entries (whichever came first). The results, depicted in FIG. 3, were calculated as AUC (area under the curve) as follows: day2+day3+day4+day5−4(day1).
# as §2
# Mice were subjected to treatment with Compound X (1 mg/kg) or Rimonabant (1 mg/kg), and during the second week of treatment their cognitive function was evaluated by an 8 arm maze as described above in Example 2.
# [4] = body weight of mice during treatment; assay type: in vivo, Sabra mice; settings: for effect on weight vs control (comparison study): 1 mg/kg i.p. days 8-12, female Sabra mice (FIG. 8, Example 3)
# Description: (§3) Young female Sabra mice were assigned at random to different groups (untreated controls or treated with 1 mg/kg Compound X Intra Peritoneally) of 10 mice per cage. The weights of the animals were similar at the beginning of the experiment. All cages contained wood-chip bedding and were placed in a temperature-controlled room at 22° C., on a 12-h light/dark cycle (lights on at 07.00 h). The mice had free access to water 24 h a day. The mice were fed ad-libitum, body weight was measured twice a week during the experiment and food consumption was calculated.
# Compound X may also be given orally. Compound X (gavage) or saline (control) were administered to Sabra mice by oral gavage.
# as §2
# [5] = total food consumption in mice; assay type: in vivo, Sabra mice; settings: 1 mg/kg i.p.; for effect on total food consumption in the second week (comparison study): second week during administration, vs control (FIG. 9B, Example 3)
# Description: as §3
# Total food consumption was evaluated in the first week before treatment and at the second week during the treatment (FIGS. 2A and 2B).
# as §2
# Total food consumption was evaluated in the first week before treatment and at the second week during the treatment (FIGS. 9A and 9B, respectively).
# [6] = neurological score by the NSS method; assay type: in vivo, Sabra mice; settings: 1 mg/kg i.p., day 10 (FIG. 11, Example 3)
# Description: as §2
# Neurological score was evaluated by the NSS method Neurological function was assessed by a 10 point scale based on reflexes and task performance 37: Exit from a circle 1 meter in diameter in less than 1 minute, seeking, walking a straight line, startle reflex, grasping reflex, righting reflex, placing reflex, corneal reflex, maintaining balance on a beam 3, 2 and 1 cm in width, climbing onto a square and a round pole. For each task failed or abnormal reflex reaction a score of 1 was assigned. Thus, a higher score indicates poorer neurological function on day 10.
# [7] = test system: Serotonin (5-HT) levels in the hypothalamus; experiment: serotonin (5-HT) levels in the hypothalamus (HPLC-ECD); assay type: in vivo, mice; settings: treated group vs. control, 1 mg/kg i.p., p<0.05 (FIG. 6)
# Description: as §1
# (§4) Serotonin (5-HT) and norepinephrine (NE) were valuated in the hypothalamus (serotonin and norepinephrine) and hippocampus (norepinephrine), using HPLC-ECD.
# [8] = test system: norepinephrine (NE) levels; experiment: norepinephrine (NE) levels in hippocampus and hypothalamus (HPLC-ECD); assay type: in vivo, mice; settings: 1 mg/kg i.p.
# Description: as §1, §4
smiles,measurement,setting,value
"CCCCCCCC/C=C\CCCCCCCC(=O)N[C@H](C)CO [KDS-5104, (Z)—(R)-9-octadecenamide, N-2(hydroxyethyl,1-methyl)]",pEC50,PPAR-α,7.00
"CCCCCCCC/C=C\CCCCCCCC(=O)N[C@H](CO)C(C)C [Compound X, ((Z-Octadec)-9-enoic acid 1-hydroxymethyl-2-methyl-propyl)-amide]",effect on activity (mean number of crossings per minute),"[1]; day 11, open field, p<0.001 (FIG. 4, Example 2)",significant increase in the activity
same,effect on activity (mean number of crossings per minute; comparison study),[1],significant increase in the activity
same,increased activity,[1]; p<0.001 (Examples 1-2 conclusion),36%
same,effect on 2-AG levels in the hypothalamus,[2],significant decrease
same,effect on ALT levels,ALT levels,slightly increased ALT levels
same,improvement in cognitive function (8 arm maze),[3]; 1 mg/kg i.p. (Examples 1-2 conclusion),400%
same,"effect on cognitive function (8 arm maze, AUC)","[3]; 1 mg/kg i.p., second week, 15 minutes after injection (FIG. 3, Example 2)",improved significantly
same,effect on cognitive function (8 arm maze; comparison study),[3],improved significantly
same,duration of the decrease in weight after administration,"[4]; 1 mg/kg Intra Peritoneally, female Sabra mice (Example 1)",about 15 days
same,effect on weight vs control (comparison study),[4],significant decrease in weight
same,continuation of the weight effect after re-administration on day 43,"[4]; administered again on day 43, female Sabra mice (Example 3)",28 days
same,continuation of the weight effect without further administration,"[4]; after 1 mg/kg i.p. days 8-12, female Sabra mice (Example 3)",31 days
same,"effect on body weight, oral gavage","[4]; oral gavage vs saline control, Sabra mice (FIG. 1B)",significantly decreasing the weight
same,decrease in food consumption,[5]; p<0.05 (Examples 1-2 conclusion),7%
same,effect on total food consumption in the second week (comparison study),[5],decreased food consumption significantly
same,effect on total food consumption in the second week,"[5]; second week during treatment, P<0.05 (FIG. 2B, Example 1)",significantly decreased food consumption
same,"effect on neurological score (NSS, 10 point scale; higher score = poorer function)",[6],did not change the neurological score
same,effect on serotonin levels in the hypothalamus,[7],increased significantly
same,effect on NE levels in the hippocampus,[8]; p<0.05 (FIG. 7A),significantly increased
same,effect on NE levels in the hypothalamus,[8]; p<0.05 (FIG. 7B),significantly increased
"Cc1c(C(=O)NN2CCCCC2)nn(-c2ccc(Cl)cc2Cl)c1-c1ccc(Cl)cc1 [Rimonabant, reference compound]",effect on activity (mean number of crossings per minute; comparison study),[1],significantly decreased activity
same,effect on ALT levels,ALT levels,raised them significantly
same,effect on cognitive function (8 arm maze; comparison study),[3],did not significantly affect cognitive function
same,effect on weight vs control (comparison study),[4],no significant difference in weight loss
same,effect on total food consumption in the second week (comparison study),[5],no significant differences
same,"effect on neurological score (NSS, 10 point scale; higher score = poorer function)",[6],tendency to increase it
